Target: T1, Vascular endothelial growth factor receptor 2 (Homo sapiens, UniProt P35968)
Experiment: Inhibition of VEGFR2 (unknown origin) using Poly (Glu, Tyr) 4:1 as substrate preincubated with substrate followed by enzyme challenge for 1 hr by ELISA
Details: not given

T1 sequence (P35968 whole entry): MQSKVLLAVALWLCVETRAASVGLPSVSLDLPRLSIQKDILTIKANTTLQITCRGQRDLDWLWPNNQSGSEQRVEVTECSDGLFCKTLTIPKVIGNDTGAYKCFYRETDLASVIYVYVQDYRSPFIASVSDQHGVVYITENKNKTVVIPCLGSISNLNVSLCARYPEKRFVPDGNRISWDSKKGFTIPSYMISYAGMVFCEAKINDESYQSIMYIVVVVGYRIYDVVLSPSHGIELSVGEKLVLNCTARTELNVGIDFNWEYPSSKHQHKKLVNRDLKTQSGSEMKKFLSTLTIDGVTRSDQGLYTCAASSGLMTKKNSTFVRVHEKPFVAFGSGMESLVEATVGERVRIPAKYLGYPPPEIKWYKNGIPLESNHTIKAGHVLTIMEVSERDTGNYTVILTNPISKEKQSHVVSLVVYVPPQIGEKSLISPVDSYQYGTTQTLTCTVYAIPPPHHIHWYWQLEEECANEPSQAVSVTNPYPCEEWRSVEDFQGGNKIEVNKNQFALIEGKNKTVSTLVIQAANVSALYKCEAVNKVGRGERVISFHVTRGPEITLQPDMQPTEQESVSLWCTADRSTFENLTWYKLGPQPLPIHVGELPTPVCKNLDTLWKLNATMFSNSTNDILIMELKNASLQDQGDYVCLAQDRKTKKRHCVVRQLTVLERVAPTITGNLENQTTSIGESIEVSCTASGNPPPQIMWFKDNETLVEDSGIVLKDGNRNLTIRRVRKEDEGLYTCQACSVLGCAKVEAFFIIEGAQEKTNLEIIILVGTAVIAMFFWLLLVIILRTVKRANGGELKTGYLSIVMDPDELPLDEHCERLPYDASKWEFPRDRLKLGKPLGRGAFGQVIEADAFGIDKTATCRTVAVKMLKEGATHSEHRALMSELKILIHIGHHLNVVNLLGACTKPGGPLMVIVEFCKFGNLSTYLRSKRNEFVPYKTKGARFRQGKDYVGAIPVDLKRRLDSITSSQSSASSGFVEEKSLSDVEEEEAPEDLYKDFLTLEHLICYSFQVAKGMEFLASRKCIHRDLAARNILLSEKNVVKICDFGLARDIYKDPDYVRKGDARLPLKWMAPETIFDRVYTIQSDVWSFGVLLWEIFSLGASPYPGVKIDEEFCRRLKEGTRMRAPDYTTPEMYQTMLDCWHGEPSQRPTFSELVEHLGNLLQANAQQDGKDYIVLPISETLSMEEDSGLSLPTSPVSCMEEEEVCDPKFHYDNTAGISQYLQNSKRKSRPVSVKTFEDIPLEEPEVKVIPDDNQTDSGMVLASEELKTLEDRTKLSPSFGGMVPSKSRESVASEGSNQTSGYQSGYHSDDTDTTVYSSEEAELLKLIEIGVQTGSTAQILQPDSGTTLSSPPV

Row | IC50 [µM] | SMILES
1 | 0.0973 | COc1ccc(CC(=O)Nc2ccc3oc(-c4ccc(Cl)cc4)nc3c2)cc1

Target: Epidermal growth factor receptor (Homo sapiens) (UniProt P00533)
Experiment: Inhibition of EGFR (unknown origin) using Poly (Glu, Tyr) 4:1 as substrate at 1 uM preincubated with substrate followed by enzyme challenge for 1 hr by ELISA relative to control
Details: not given

Chain of Epidermal growth factor receptor (Homo sapiens) (P00533 whole entry): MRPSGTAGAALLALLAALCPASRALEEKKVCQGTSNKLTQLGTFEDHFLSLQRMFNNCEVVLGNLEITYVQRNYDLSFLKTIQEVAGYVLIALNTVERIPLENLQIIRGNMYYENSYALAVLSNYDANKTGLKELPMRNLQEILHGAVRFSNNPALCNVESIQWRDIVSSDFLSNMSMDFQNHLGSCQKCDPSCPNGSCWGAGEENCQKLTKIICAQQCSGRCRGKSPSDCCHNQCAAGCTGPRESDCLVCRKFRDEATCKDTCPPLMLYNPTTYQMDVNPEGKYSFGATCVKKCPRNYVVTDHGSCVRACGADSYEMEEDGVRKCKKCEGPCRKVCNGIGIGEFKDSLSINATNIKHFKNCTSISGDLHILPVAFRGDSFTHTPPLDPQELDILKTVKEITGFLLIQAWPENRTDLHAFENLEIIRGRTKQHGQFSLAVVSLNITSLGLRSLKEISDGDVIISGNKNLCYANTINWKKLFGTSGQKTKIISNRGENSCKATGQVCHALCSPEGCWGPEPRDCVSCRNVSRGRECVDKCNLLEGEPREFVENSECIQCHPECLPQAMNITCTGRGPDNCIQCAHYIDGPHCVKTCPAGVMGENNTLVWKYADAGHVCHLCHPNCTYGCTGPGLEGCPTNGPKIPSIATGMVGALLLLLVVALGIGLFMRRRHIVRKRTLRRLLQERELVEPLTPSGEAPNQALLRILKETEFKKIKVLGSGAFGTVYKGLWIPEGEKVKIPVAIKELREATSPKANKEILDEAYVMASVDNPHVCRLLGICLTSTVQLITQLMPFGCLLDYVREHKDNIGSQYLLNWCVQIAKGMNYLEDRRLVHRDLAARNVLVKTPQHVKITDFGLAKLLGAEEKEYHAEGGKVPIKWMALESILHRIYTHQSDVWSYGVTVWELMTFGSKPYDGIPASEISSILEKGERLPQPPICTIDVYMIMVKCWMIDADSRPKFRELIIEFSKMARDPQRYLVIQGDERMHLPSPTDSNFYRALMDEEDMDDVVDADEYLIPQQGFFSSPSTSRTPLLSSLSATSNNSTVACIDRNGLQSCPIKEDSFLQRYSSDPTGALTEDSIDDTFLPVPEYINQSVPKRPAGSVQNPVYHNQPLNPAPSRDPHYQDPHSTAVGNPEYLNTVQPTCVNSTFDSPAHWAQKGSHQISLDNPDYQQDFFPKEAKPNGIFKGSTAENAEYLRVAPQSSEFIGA

Row | SMILES | inhibition [%]
2 | COc1ccc(CC(=O)Nc2ccc3oc(-c4ccc(Cl)c(Br)c4)nc3c2)cc1OC | 20.4
3 | COc1ccc(CC(=O)Nc2ccc3oc(-c4ccccc4F)nc3c2)cc1OC | 32.3
4 | COc1ccc(CC(=O)Nc2ccc3[nH]c(-c4ccc(OC)cc4)nc3c2)cc1 | 27.8
5 | O=C(Nc1ccc2oc(-c3ccccc3)nc2c1)c1ccc(Cl)c(F)c1 | 13.9
6 | O=C(Nc1ccc2oc(-c3ccccc3Br)nc2c1)c1ccc(Br)c(F)c1 | 21.8
7 | O=C(Nc1ccc2oc(-c3ccc(Cl)c(Br)c3)nc2c1)c1ccc(Br)c(F)c1 | 18.4
8 | COc1cc(CC(=O)Nc2ccc3oc(-c4ccc(Cl)c(Br)c4)nc3c2)cc(OC)c1OC | 21.5
9 | O=C(Nc1ccc2oc(-c3ccccc3Br)nc2c1)c1ccc(Cl)c(Br)c1 | 27.5

Results, then the compound that gave them:

Row | inhibition [%] | SMILES
10 | 49.4 | COc1ccc(CC(=O)Nc2ccc3oc(-c4ccc(Cl)cc4)nc3c2)cc1
11 | 36.3 | COc1ccc(CC(=O)Nc2ccc3oc(-c4ccc(Cl)c(Br)c4)nc3c2)cc1
12 | 36.2 | COc1ccc(CC(=O)Nc2ccc3oc(-c4ccccc4Cl)nc3c2)cc1OC
13 | 21.6 | COc1ccc(CC(=O)Nc2ccc3oc(-c4ccc(C)cc4)nc3c2)cc1
14 | 36.2 | COc1ccc(CC(=O)Nc2ccc3oc(-c4ccccc4Br)nc3c2)cc1
15 | 37.1 | O=C(Nc1ccc2oc(-c3ccccc3F)nc2c1)c1ccc(Cl)c(Br)c1
16 | 19.4 | COc1ccc(CC(=O)Nc2ccc3oc(-c4ccc(OC)cc4)nc3c2)cc1
17 | 32.5 | O=C(Nc1ccc2oc(-c3ccccc3)nc2c1)c1ccc(Cl)c(Br)c1

Tested on: HUVEC
Experiment: Antiproliferative activity against human HUVEC cells expressing VEGFR2 assessed as reduction in cell growth incubated for 48 hrs by MTT assay
Format: functional, cell-based
Details: not given

Row | SMILES | IC50 [µM]
18 | COc1ccc(CC(=O)Nc2ccc3oc(-c4ccc(Cl)cc4)nc3c2)cc1 | 5.25
19 | COc1ccc(CC(=O)Nc2ccc3oc(-c4ccc(Cl)c(Br)c4)nc3c2)cc1OC | 46.3
20 | COc1ccc(CC(=O)Nc2ccc3oc(-c4ccc(Cl)c(Br)c4)nc3c2)cc1 | 38.3
21 | COc1ccc(CC(=O)Nc2ccc3oc(-c4ccccc4Cl)nc3c2)cc1OC | 20.2
22 | COc1ccc(CC(=O)Nc2ccc3oc(-c4ccc(C)cc4)nc3c2)cc1 | 57.5
23 | COc1ccc(CC(=O)Nc2ccc3oc(-c4ccccc4F)nc3c2)cc1OC | 16.2
24 | COc1ccc(CC(=O)Nc2ccc3[nH]c(-c4ccc(OC)cc4)nc3c2)cc1 | 30.6
25 | O=C(Nc1ccc2oc(-c3ccccc3)nc2c1)c1ccc(Cl)c(F)c1 | 27.4
26 | COc1ccc(CC(=O)Nc2ccc3oc(-c4ccccc4Br)nc3c2)cc1 | 26.2
27 | O=C(Nc1ccc2oc(-c3ccccc3F)nc2c1)c1ccc(Cl)c(Br)c1 | 15.9
28 | O=C(Nc1ccc2oc(-c3ccccc3Br)nc2c1)c1ccc(Br)c(F)c1 | 52.3
29 | O=C(Nc1ccc2oc(-c3ccc(Cl)c(Br)c3)nc2c1)c1ccc(Br)c(F)c1 | 75.3
30 | COc1cc(CC(=O)Nc2ccc3oc(-c4ccc(Cl)c(Br)c4)nc3c2)cc(OC)c1OC | 52.4
31 | COc1ccc(CC(=O)Nc2ccc3oc(-c4ccc(OC)cc4)nc3c2)cc1 | 63.6
32 | O=C(Nc1ccc2oc(-c3ccccc3)nc2c1)c1ccc(Cl)c(Br)c1 | 16.9
33 | O=C(Nc1ccc2oc(-c3ccccc3Br)nc2c1)c1ccc(Cl)c(Br)c1 | 37.3

Tested on: HepG2
Experiment: Antiproliferative activity against human HepG2 cells expressing VEGFR2 assessed as reduction in cell growth incubated for 48 hrs by MTT assay
Format: functional, cell-based
Details: HepG2, 48 h

Row | SMILES | IC50 [µM]
34 | COc1ccc(CC(=O)Nc2ccc3oc(-c4ccc(Cl)c(Br)c4)nc3c2)cc1OC | 83.8
35 | COc1ccc(CC(=O)Nc2ccc3oc(-c4ccccc4F)nc3c2)cc1OC | > 100
36 | COc1ccc(CC(=O)Nc2ccc3[nH]c(-c4ccc(OC)cc4)nc3c2)cc1 | 61.4
37 | O=C(Nc1ccc2oc(-c3ccccc3)nc2c1)c1ccc(Cl)c(F)c1 | 91.9
38 | O=C(Nc1ccc2oc(-c3ccccc3Br)nc2c1)c1ccc(Br)c(F)c1 | 31.2
39 | O=C(Nc1ccc2oc(-c3ccc(Cl)c(Br)c3)nc2c1)c1ccc(Br)c(F)c1 | 59.2
40 | COc1cc(CC(=O)Nc2ccc3oc(-c4ccc(Cl)c(Br)c4)nc3c2)cc(OC)c1OC | > 100
41 | O=C(Nc1ccc2oc(-c3ccccc3Br)nc2c1)c1ccc(Cl)c(Br)c1 | 57.3

Further lines, results first:

Row | IC50 [µM] | SMILES
42 | 8.22 | COc1ccc(CC(=O)Nc2ccc3oc(-c4ccc(Cl)cc4)nc3c2)cc1
43 | > 100 | COc1ccc(CC(=O)Nc2ccc3oc(-c4ccc(Cl)c(Br)c4)nc3c2)cc1
44 | 17.3 | COc1ccc(CC(=O)Nc2ccc3oc(-c4ccccc4Cl)nc3c2)cc1OC
45 | > 100 | COc1ccc(CC(=O)Nc2ccc3oc(-c4ccc(C)cc4)nc3c2)cc1
46 | 47 | COc1ccc(CC(=O)Nc2ccc3oc(-c4ccccc4Br)nc3c2)cc1
47 | 95.1 | O=C(Nc1ccc2oc(-c3ccccc3F)nc2c1)c1ccc(Cl)c(Br)c1
48 | > 100 | COc1ccc(CC(=O)Nc2ccc3oc(-c4ccc(OC)cc4)nc3c2)cc1
49 | 68.2 | O=C(Nc1ccc2oc(-c3ccccc3)nc2c1)c1ccc(Cl)c(Br)c1

Tested on: A549
Experiment: Antiproliferative activity against human A549 cells expressing EGFR assessed as reduction in cell growth incubated for 48 hrs by MTT assay
Format: functional, cell-based
Details: A549, 48 h

Row | SMILES | IC50 [µM]
50 | COc1ccc(CC(=O)Nc2ccc3oc(-c4ccc(Cl)c(Br)c4)nc3c2)cc1OC | > 100
51 | COc1ccc(CC(=O)Nc2ccc3oc(-c4ccccc4F)nc3c2)cc1OC | > 100
52 | COc1ccc(CC(=O)Nc2ccc3[nH]c(-c4ccc(OC)cc4)nc3c2)cc1 | 76.2
53 | O=C(Nc1ccc2oc(-c3ccccc3)nc2c1)c1ccc(Cl)c(F)c1 | > 100
54 | O=C(Nc1ccc2oc(-c3ccccc3Br)nc2c1)c1ccc(Br)c(F)c1 | 66.2
55 | O=C(Nc1ccc2oc(-c3ccc(Cl)c(Br)c3)nc2c1)c1ccc(Br)c(F)c1 | 47.4
56 | COc1cc(CC(=O)Nc2ccc3oc(-c4ccc(Cl)c(Br)c4)nc3c2)cc(OC)c1OC | > 100
57 | O=C(Nc1ccc2oc(-c3ccccc3Br)nc2c1)c1ccc(Cl)c(Br)c1 | 53.4

Continued, values first:

Row | IC50 [µM] | SMILES
58 | 74.4 | COc1ccc(CC(=O)Nc2ccc3oc(-c4ccc(Cl)cc4)nc3c2)cc1
59 | > 100 | COc1ccc(CC(=O)Nc2ccc3oc(-c4ccc(Cl)c(Br)c4)nc3c2)cc1
60 | > 100 | COc1ccc(CC(=O)Nc2ccc3oc(-c4ccccc4Cl)nc3c2)cc1OC
61 | > 100 | COc1ccc(CC(=O)Nc2ccc3oc(-c4ccc(C)cc4)nc3c2)cc1
62 | 55.2 | COc1ccc(CC(=O)Nc2ccc3oc(-c4ccccc4Br)nc3c2)cc1
63 | 86.3 | O=C(Nc1ccc2oc(-c3ccccc3F)nc2c1)c1ccc(Cl)c(Br)c1
64 | > 100 | COc1ccc(CC(=O)Nc2ccc3oc(-c4ccc(OC)cc4)nc3c2)cc1
65 | 78.6 | O=C(Nc1ccc2oc(-c3ccccc3)nc2c1)c1ccc(Cl)c(Br)c1

Tested on: MDA-MB-231
Experiment: Antiproliferative activity against human MDA-MB-231 cells expressing EGFR assessed as reduction in cell growth incubated for 48 hrs by MTT assay
Format: functional, cell-based
Details: MDA-MB-231, 48 h

Row | SMILES | IC50 [µM]
66 | COc1ccc(CC(=O)Nc2ccc3oc(-c4ccc(Cl)c(Br)c4)nc3c2)cc1OC | > 100
67 | COc1ccc(CC(=O)Nc2ccc3oc(-c4ccccc4F)nc3c2)cc1OC | > 100
68 | COc1ccc(CC(=O)Nc2ccc3[nH]c(-c4ccc(OC)cc4)nc3c2)cc1 | > 100
69 | O=C(Nc1ccc2oc(-c3ccccc3)nc2c1)c1ccc(Cl)c(F)c1 | > 100
70 | O=C(Nc1ccc2oc(-c3ccccc3Br)nc2c1)c1ccc(Br)c(F)c1 | > 100
71 | O=C(Nc1ccc2oc(-c3ccc(Cl)c(Br)c3)nc2c1)c1ccc(Br)c(F)c1 | > 100
72 | COc1cc(CC(=O)Nc2ccc3oc(-c4ccc(Cl)c(Br)c4)nc3c2)cc(OC)c1OC | > 100
73 | O=C(Nc1ccc2oc(-c3ccccc3Br)nc2c1)c1ccc(Cl)c(Br)c1 | > 100

More lines, now with the values ahead:

Row | IC50 [µM] | SMILES
74 | 74.3 | COc1ccc(CC(=O)Nc2ccc3oc(-c4ccc(Cl)cc4)nc3c2)cc1
75 | > 100 | COc1ccc(CC(=O)Nc2ccc3oc(-c4ccc(Cl)c(Br)c4)nc3c2)cc1
76 | > 100 | COc1ccc(CC(=O)Nc2ccc3oc(-c4ccccc4Cl)nc3c2)cc1OC
77 | > 100 | COc1ccc(CC(=O)Nc2ccc3oc(-c4ccc(C)cc4)nc3c2)cc1
78 | 84.3 | COc1ccc(CC(=O)Nc2ccc3oc(-c4ccccc4Br)nc3c2)cc1
79 | 83.4 | O=C(Nc1ccc2oc(-c3ccccc3F)nc2c1)c1ccc(Cl)c(Br)c1
80 | > 100 | COc1ccc(CC(=O)Nc2ccc3oc(-c4ccc(OC)cc4)nc3c2)cc1
81 | > 100 | O=C(Nc1ccc2oc(-c3ccccc3)nc2c1)c1ccc(Cl)c(Br)c1

Target: T1, Vascular endothelial growth factor receptor 2
Details: at 1 µM
Description: Inhibition of VEGFR2 (unknown origin) using Poly (Glu, Tyr) 4:1 as substrate at 1 uM preincubated with substrate followed by enzyme challenge for 1 hr by ELISA relative to control

Row | SMILES | inhibition [%]
82 | COc1ccc(CC(=O)Nc2ccc3oc(-c4ccc(Cl)c(Br)c4)nc3c2)cc1OC | 65
83 | COc1ccc(CC(=O)Nc2ccc3oc(-c4ccccc4F)nc3c2)cc1OC | 84.2
84 | COc1ccc(CC(=O)Nc2ccc3[nH]c(-c4ccc(OC)cc4)nc3c2)cc1 | 68.3
85 | O=C(Nc1ccc2oc(-c3ccccc3)nc2c1)c1ccc(Cl)c(F)c1 | 47.8
86 | O=C(Nc1ccc2oc(-c3ccccc3Br)nc2c1)c1ccc(Br)c(F)c1 | 62.3
87 | O=C(Nc1ccc2oc(-c3ccc(Cl)c(Br)c3)nc2c1)c1ccc(Br)c(F)c1 | 36.5
88 | COc1cc(CC(=O)Nc2ccc3oc(-c4ccc(Cl)c(Br)c4)nc3c2)cc(OC)c1OC | 47.5
89 | O=C(Nc1ccc2oc(-c3ccccc3Br)nc2c1)c1ccc(Cl)c(Br)c1 | 71.4

The next lines start with the values.

Row | inhibition [%] | SMILES
90 | 102 | COc1ccc(CC(=O)Nc2ccc3oc(-c4ccc(Cl)cc4)nc3c2)cc1
91 | 79.9 | COc1ccc(CC(=O)Nc2ccc3oc(-c4ccc(Cl)c(Br)c4)nc3c2)cc1
92 | 86.4 | COc1ccc(CC(=O)Nc2ccc3oc(-c4ccccc4Cl)nc3c2)cc1OC
93 | 43.2 | COc1ccc(CC(=O)Nc2ccc3oc(-c4ccc(C)cc4)nc3c2)cc1
94 | 87.3 | COc1ccc(CC(=O)Nc2ccc3oc(-c4ccccc4Br)nc3c2)cc1
95 | 84.2 | O=C(Nc1ccc2oc(-c3ccccc3F)nc2c1)c1ccc(Cl)c(Br)c1
96 | 38.4 | COc1ccc(CC(=O)Nc2ccc3oc(-c4ccc(OC)cc4)nc3c2)cc1
97 | 72.4 | O=C(Nc1ccc2oc(-c3ccccc3)nc2c1)c1ccc(Cl)c(Br)c1

From ChEMBL document CHEMBL4396905, “Design, synthesis and in vitro evaluation of 6-amide-2-aryl benzoxazole/benzimidazole derivatives against tumor cells by inhibiting VEGFR-2 kinase” (Eur J Med Chem, 2019)
